Laboratory results taken from patent US12162879B2, “Pyridopyrimidine derivative, preparation method therefor and medical use thereof” (Jiangsu Hengrui Medicine Co., Ltd., priority 2018, dated 2024).
pIC50: −log10 of the molar value.

Key:
[1] = biological target: CYP3A4 (midazolam metabolite site) (Homo sapiens (Human), UniProt P08684); experiment: Inhibition of enzyme activity of midazolam metabolite site of CYP3A4 in human liver microsome; assay type: in vitro ADME; conditions: midazolam probe substrate, 30 minutes
Chain of CYP3A4 (midazolam metabolite site) (P08684 whole entry): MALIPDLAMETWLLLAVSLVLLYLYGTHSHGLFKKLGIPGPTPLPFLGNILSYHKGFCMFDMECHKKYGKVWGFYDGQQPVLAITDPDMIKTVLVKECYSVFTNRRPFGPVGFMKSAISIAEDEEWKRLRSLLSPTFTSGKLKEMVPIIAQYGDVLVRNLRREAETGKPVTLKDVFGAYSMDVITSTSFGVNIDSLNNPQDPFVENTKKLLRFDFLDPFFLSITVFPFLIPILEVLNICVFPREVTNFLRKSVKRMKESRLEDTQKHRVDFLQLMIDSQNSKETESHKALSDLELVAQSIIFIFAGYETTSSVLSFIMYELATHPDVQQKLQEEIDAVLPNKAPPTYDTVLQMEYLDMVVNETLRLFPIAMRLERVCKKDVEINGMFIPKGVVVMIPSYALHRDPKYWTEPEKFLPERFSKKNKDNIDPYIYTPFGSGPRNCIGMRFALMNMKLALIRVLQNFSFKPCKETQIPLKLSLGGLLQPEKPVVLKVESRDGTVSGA
Protocol: The effect of the compounds of the present invention on the enzyme activity of midazolam metabolite site of CYP3A4 in human liver microsomes was determined by the following experimental method.
• 1. Phosphate buffer solution (PBS) (Shanghai Basalmedia Technologies Co., Ltd., B320, similarly hereinafter); • 2. NADPH (Sigma N-1630); • 3. Human liver microsome (Corning Gentest); • 4. ABI QTrap 4000 liquid chromatograph/mass spectrometer (AB Sciex); • 5. Inertsil C8-3 column, 4.6×50 mm, 5 μm (Dikma Technologies Inc., USA); and • 6. CYP probe substrate (15 μM midazolam, SIGMA UC429) and positive control inhibitor (ketoconazole, SIGMA K1003). II. Experimental Procedures
(§1) 100 mM PBS buffer was formulated, which was then used to formulate 2.5 mg/ml human microsome solution and 5 mM NADPH solution. The 5× concentration of the compound working solution was diluted with PBS in gradients (150, 50, 15, 5, 1.5, 0.15, 0.015, 0 μM). The 5× concentration of ketoconazole working solution was diluted with PBS in gradients (150, 50, 15, 5, 1.5, 0.15, 0.015, 0 μM). Midazolam working solution was diluted with PBS to a concentration of 15 μM.
(§2) 20 μl of 2.5 mg/ml microsome solution, 20 μl of 15 μM midazolam working solution, 20 μl of MgCl2 solution and 20 μl of the compound working solution (150, 50, 15, 5, 1.5, 0.15, 0.015, 0 μM, different reaction systems for each concentration) were mixed well. For the positive control group, the compound was replaced with the same concentration of ketoconazole. The mixture together with 5 mM NADPH solution was pre-incubated at 37° C. for 5 minutes. After 5 minutes, 20 μl of NADPH was added to each well, the reaction was initiated, and the plate was incubated for 30 minutes. All the incubated samples were present in duplicate. After 30 minutes, 250 μl of acetonitrile containing internal standard (100 ng/ml camptothecin) was added to all samples, mixed well, shaken at 800 rpm for 10 minutes, and then centrifuged at 3700 rpm for 10 minutes. 80 μl of the supernatant was taken and analyzed by LC-MS/MS.
The data was calculated by Graphpad Prism to obtain the IC50 values of the compounds on the midazolam metabolite site of CYP3A4, which are shown in Table 2.

CYP2D6 = CYP2D6 (Homo sapiens (Human), UniProt P10635); experiment: Inhibition of enzyme activity of CYP2D6 in human liver microsome; assay type: in vitro ADME; conditions: dextromethorphan probe substrate, 30 minutes, read-out: IC50 of the inhibition effect on CYP2D6 enzyme
Chain of CYP2D6 (P10635 whole entry): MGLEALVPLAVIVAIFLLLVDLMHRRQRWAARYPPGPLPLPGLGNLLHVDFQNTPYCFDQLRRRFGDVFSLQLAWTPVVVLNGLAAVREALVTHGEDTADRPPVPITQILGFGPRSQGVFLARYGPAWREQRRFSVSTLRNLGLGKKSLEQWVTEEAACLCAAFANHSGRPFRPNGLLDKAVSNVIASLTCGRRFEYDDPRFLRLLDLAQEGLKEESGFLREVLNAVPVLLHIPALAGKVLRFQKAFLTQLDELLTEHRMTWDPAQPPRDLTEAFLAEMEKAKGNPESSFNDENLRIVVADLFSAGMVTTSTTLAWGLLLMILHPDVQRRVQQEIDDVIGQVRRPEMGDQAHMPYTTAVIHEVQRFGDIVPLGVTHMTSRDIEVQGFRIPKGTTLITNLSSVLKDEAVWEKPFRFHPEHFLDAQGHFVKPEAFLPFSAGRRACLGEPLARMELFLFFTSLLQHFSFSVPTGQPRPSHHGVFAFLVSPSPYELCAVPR
Protocol: The effect of the compounds of the present invention on the enzyme activity of CYP2D6 in human liver microsome was determined by the following experimental method.
• 1. Phosphate buffer solution (PBS); • 2. NADPH (Sigma N-1630); • 3. Human liver microsome (Corning Gentest); • 4. ABI QTrap 4000 liquid chromatograph/mass spectrometer (AB Sciex); • 5. Inertsil C8-3 column, 4.6×50 mm, 5 μm (Dikma Technologies Inc., USA); and • 6. CYP probe substrate (20 μM dextromethorphan, SIGMA Q0750) and positive control inhibitor (quinidine, SIGMA D9684). II. Experimental Procedures
as §1, with “of quinidine” for “of ketoconazole”, “μM). Dextromethorphan” for “μM). Midazolam”, “of 20” for “of 15”
as §2, with “of 20” for “of 15”, “μM dextromethorphan” for “μM midazolam”, “of quinidine.” for “of ketoconazole.”
The data was calculated by Graphpad Prism to obtain the IC50 values of the inhibition effect of the present compounds on CYP2D6 enzyme, which are shown in Table 3.

hERG potassium channel = hERG potassium channel (Homo sapiens (Human), UniProt Q12809); experiment: Blocking effect on hERG potassium current, automatic patch clamp (Patchliner) on HEK293-hERG stable cell line; assay type: cell-based
Chain of hERG potassium channel (Q12809 whole entry): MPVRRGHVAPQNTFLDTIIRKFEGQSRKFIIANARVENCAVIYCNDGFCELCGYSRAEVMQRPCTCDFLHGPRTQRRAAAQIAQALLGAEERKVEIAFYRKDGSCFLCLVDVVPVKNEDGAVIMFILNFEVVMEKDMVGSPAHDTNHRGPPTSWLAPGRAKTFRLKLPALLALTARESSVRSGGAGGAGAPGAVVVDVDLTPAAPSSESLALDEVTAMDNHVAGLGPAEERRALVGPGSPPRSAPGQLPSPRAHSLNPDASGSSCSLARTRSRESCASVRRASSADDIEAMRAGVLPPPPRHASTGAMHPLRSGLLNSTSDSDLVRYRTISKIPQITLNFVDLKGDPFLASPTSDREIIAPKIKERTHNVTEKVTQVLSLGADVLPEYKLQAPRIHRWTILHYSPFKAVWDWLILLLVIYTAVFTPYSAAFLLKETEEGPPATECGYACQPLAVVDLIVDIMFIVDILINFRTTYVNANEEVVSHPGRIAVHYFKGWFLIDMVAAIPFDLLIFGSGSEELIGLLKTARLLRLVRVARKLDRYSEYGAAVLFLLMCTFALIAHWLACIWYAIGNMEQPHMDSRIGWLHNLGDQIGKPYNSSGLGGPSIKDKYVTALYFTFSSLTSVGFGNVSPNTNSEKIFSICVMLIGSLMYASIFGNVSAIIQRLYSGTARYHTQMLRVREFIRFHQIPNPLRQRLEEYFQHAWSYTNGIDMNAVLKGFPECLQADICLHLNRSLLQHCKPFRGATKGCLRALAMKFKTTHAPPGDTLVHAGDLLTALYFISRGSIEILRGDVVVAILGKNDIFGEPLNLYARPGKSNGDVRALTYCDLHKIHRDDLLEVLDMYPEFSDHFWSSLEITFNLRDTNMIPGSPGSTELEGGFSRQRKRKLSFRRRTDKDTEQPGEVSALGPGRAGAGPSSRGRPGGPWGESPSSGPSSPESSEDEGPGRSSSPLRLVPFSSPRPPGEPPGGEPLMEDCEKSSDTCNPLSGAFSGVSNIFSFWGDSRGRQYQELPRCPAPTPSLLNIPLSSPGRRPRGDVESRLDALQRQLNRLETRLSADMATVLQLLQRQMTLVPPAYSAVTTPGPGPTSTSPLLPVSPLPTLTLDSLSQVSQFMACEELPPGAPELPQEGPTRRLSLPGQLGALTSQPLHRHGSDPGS
Protocol: The blocking effect of the compounds of the present application on hERG potassium current was determined using an automatic patch-clamp on a stable cell line transfected with hERG potassium channels.
The HEK293 cell line was transfected with pCDNA3.1(+) that had constructed the hERG gene. The monoclonal HEK293-hERG stable cell line was screened by adding G418. The HEK293-hERG stable cell line was subcultured at a density of 1:4 in MEM/EBSS medium (10% FBS, 400 μg/mL G418, 1% MEM non-essential amino acid solution (100×), 1% sodium pyruvate solution) and cultured within 48 to 72 hours for the automatic patch clamp experiment. On the day of the experiment, the cells were digested with 0.25% trypsin (life technologies, 12563-029), collected by centrifugation and resuspended with extracellular fluid (140 mM NaCl, 4 mM KCl, 1 mM MgCl2, 2 mM CaCl2, 5 mM MD glucose monohydrate, 10 mM HEPES, pH 7.4, 298 mOsmol) to obtain a cell suspension. The cell suspension was placed on the cell bank of the Patchliner instrument, the Patchliner instrument used a negative pressure controller to apply the cells to the chip (NPC-16), and the negative pressure attracted individual cells to the wells of the chip. When the whole cell mode was formed, the instrument got the hERG current according to the set hERG current-voltage program, and then the instrument automatically perfused the compound from low to high concentration. The currents at each concentration of the compound and the blank control current were analyzed by the HEAK EPC 10 patch clamp amplifier (Nanion), Pathlinersoftware and data analysis software provided by Pathcontrol HTsoftware.

Compound | pIC50 [1] | pIC50 (CYP2D6) | pIC50 (hERG potassium channel)
CCCC[C@](C)(CO)Nc1nc(N)nc2cc(-c3ccc(C4CCN(C)CC4)nc3)cnc12 [Example 4, (R)-2-((2-Amino-7-(6-(1-methylpiperidin-4-yl)pyridin-3-yl)pyrido[3,2-d]pyrimidin-4-yl)amino)-2-methylhexan-1-ol] | < 4.52 | < 4.52 | 4.85
CCCC[C@](C)(CO)Nc1nc(N)nc2cc(-c3cnc(C4CCN(C)CC4)nc3)cnc12 [Example 8, (R)-2-((2-Amino-7-(2-(1-methylpiperidin-4-yl)pyrimidin-5-yl)pyrido[3,2-d]pyrimidin-4-yl)amino)-2-methylhexan-1-ol] | < 4.52 | < 4.52 | < 4.52

The next lines start with results.

pIC50 [1] | pIC50 (CYP2D6) | Compound | pIC50 (hERG potassium channel)
4.57 | < 4.52 | CCCC[C@](C)(CO)Nc1nc(N)nc2cc(-c3ccc(CN4CCCC4)nc3)cnc12 [Example 2, (R)-2-((2-Amino-7-(6-(pyrrolidin-1-ylmethyl)pyridin-3-yl)pyrido[3,2-d]pyrimidin-4-yl)amino)-2-methylhexan-1-ol] | 5.15
< 4.52 | < 4.52 | CCCCC(C)(CO)Nc1nc(N)nc2cc(-c3ccc(CN4CCN(C)CC4)nc3)cnc12 (stereo not drawn) [Example 5, 2-((2-Amino-7-(6-((4-methylpiperazin-1-yl)methyl)pyridin-3-yl)pyrido[3,2-d]pyrimidin-4-yl)amino)-2-methylhexan-1-ol] | 4.77
< 4.52 | < 4.52 | CCCC[C@](C)(CO)Nc1nc(N)nc2cc(-c3ccc(CN4CCN(C)CC4)nc3)cnc12 [Example 6, (R)-2-((2-Amino-7-(6-((4-methylpiperazin-1-yl)methyl)pyridin-3-yl)pyrido[3,2-d]pyrimidin-4-yl)amino)-2-methylhexan-1-ol] | 4.59
